Columns and labels:
Experiment in all cases: relative viability (nuclei count vs DMSO), 5 days (fraction); higher = more cells survive
201T = test system: 201T
Method in brief: (§1)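 Relative viability is defined as nuclei in treated wells over nuclei in vehicle wells. Duplicate plates were run and medians reported. Lung cancer cell lines in 1536-well plates were dosed by pin tool one day after seeding, with one drug or with a fixed anchor-drug dose plus five library-drug doses (not always all listed) in √10 steps, and nuclei were counted after 5 days.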

BEN = test system: BEN
Method in brief: as §1

CAL-12T = test system: CAL-12T
Method in brief: as §1

HCC-827 = test system: HCC-827
Method in brief: as §1

LCLC-103H = test system: LCLC-103H
Method in brief: as §1

LCLC-97TM1 = test system: LCLC-97TM1
Method in brief: as §1

LXF-289 = test system: LXF-289
Method in brief: as §1

NCI-H1395 = test system: NCI-H1395
Method in brief: as §1

NCI-H1437 = test system: NCI-H1437
Method in brief: as §1

NCI-H1650 = test system: NCI-H1650
Method in brief: as §1

NCI-H1792 = test system: NCI-H1792
Method in brief: as §1

NCI-H1793 = test system: NCI-H1793
Method in brief: as §1

NCI-H1944 = test system: NCI-H1944
Method in brief: as §1

NCI-H2087 = test system: NCI-H2087
Method in brief: as §1

NCI-H2228 = test system: NCI-H2228
Method in brief: as §1

NCI-H2405 = test system: NCI-H2405
Method in brief: as §1

NCI-H3122 = test system: NCI-H3122
Method in brief: as §1

NCI-H322M = test system: NCI-H322M
Method in brief: as §1

NCI-H647 = test system: NCI-H647
Method in brief: as §1

NCI-H727 = test system: NCI-H727
Method in brief: as §1

RERF-LC-KJ = test system: RERF-LC-KJ
Method in brief: as §1

SK-LU-1 = test system: SK-LU-1
Method in brief: as §1

COc1cc2nccc(Oc3ccc(NC(=O)Nc4cc(C)on4)c(Cl)c3)c2cc1OC [Tivozanib] + N=C(N)NC(=N)NCCc1ccccc1 [Phenformin] (partner 250 µM)
relative viability (201T; first compound 0.005 µM): 0.447
relative viability (201T; first compound 0.01581 µM): 0.405
relative viability (201T; first compound 0.05 µM): 0.423
relative viability (201T; first compound 0.1581 µM): 0.445
relative viability (201T; first compound 0.5 µM): 0.469
relative viability (BEN; first compound 0.005 µM): 0.25
relative viability (BEN; first compound 0.01581 µM): 0.279
relative viability (BEN; first compound 0.05 µM): 0.224
relative viability (BEN; first compound 0.1581 µM): 0.314
relative viability (BEN; first compound 0.5 µM): 0.234
relative viability (CAL-12T; first compound 0.005 µM): 0.538
relative viability (CAL-12T; first compound 0.01581 µM): 0.554
relative viability (CAL-12T; first compound 0.05 µM): 0.494
relative viability (CAL-12T; first compound 0.1581 µM): 0.625
relative viability (CAL-12T; first compound 0.5 µM): 0.558
relative viability (HCC-827; first compound 0.005 µM): 0.402
relative viability (HCC-827; first compound 0.01581 µM): 0.434
relative viability (HCC-827; first compound 0.05 µM): 0.391
relative viability (HCC-827; first compound 0.1581 µM): 0.43
relative viability (HCC-827; first compound 0.5 µM): 0.452
relative viability (LCLC-103H; first compound 0.005 µM): 0.325
relative viability (LCLC-103H; first compound 0.01581 µM): 0.326
relative viability (LCLC-103H; first compound 0.05 µM): 0.35
relative viability (LCLC-103H; first compound 0.1581 µM): 0.306
relative viability (LCLC-103H; first compound 0.5 µM): 0.348
relative viability (LCLC-97TM1; first compound 0.005 µM): 0.423
relative viability (LCLC-97TM1; first compound 0.01581 µM): 0.49
relative viability (LCLC-97TM1; first compound 0.05 µM): 0.417
relative viability (LCLC-97TM1; first compound 0.1581 µM): 0.473
relative viability (LCLC-97TM1; first compound 0.5 µM): 0.395
relative viability (LXF-289; first compound 0.005 µM): 0.532
relative viability (LXF-289; first compound 0.01581 µM): 0.506
relative viability (LXF-289; first compound 0.05 µM): 0.514
relative viability (LXF-289; first compound 0.1581 µM): 0.561
relative viability (LXF-289; first compound 0.5 µM): 0.418
relative viability (NCI-H1395; first compound 0.005 µM): 0.357
relative viability (NCI-H1395; first compound 0.01581 µM): 0.475
relative viability (NCI-H1395; first compound 0.05 µM): 0.444
relative viability (NCI-H1395; first compound 0.1581 µM): 0.426
relative viability (NCI-H1395; first compound 0.5 µM): 0.383
relative viability (NCI-H1437; first compound 0.005 µM): 0.296
relative viability (NCI-H1437; first compound 0.01581 µM): 0.289
relative viability (NCI-H1437; first compound 0.05 µM): 0.316
relative viability (NCI-H1437; first compound 0.1581 µM): 0.339
relative viability (NCI-H1437; first compound 0.5 µM): 0.317
relative viability (NCI-H1650; first compound 0.005 µM): 0.454
relative viability (NCI-H1650; first compound 0.01581 µM): 0.515
relative viability (NCI-H1650; first compound 0.05 µM): 0.486
relative viability (NCI-H1650; first compound 0.1581 µM): 0.497
relative viability (NCI-H1650; first compound 0.5 µM): 0.353
relative viability (NCI-H1792; first compound 0.005 µM): 0.316
relative viability (NCI-H1792; first compound 0.01581 µM): 0.394
relative viability (NCI-H1792; first compound 0.05 µM): 0.361
relative viability (NCI-H1792; first compound 0.5 µM): 0.388
relative viability (NCI-H1793; first compound 0.005 µM): 0.35
relative viability (NCI-H1793; first compound 0.01581 µM): 0.352
relative viability (NCI-H1793; first compound 0.05 µM): 0.419
relative viability (NCI-H1793; first compound 0.1581 µM): 0.309
relative viability (NCI-H1793; first compound 0.5 µM): 0.335
relative viability (NCI-H1944; first compound 0.005 µM): 0.189
relative viability (NCI-H1944; first compound 0.01581 µM): 0.202
relative viability (NCI-H1944; first compound 0.05 µM): 0.208
relative viability (NCI-H1944; first compound 0.1581 µM): 0.21
relative viability (NCI-H1944; first compound 0.5 µM): 0.188
relative viability (NCI-H2087; first compound 0.005 µM): 0.416
relative viability (NCI-H2087; first compound 0.01581 µM): 0.444
relative viability (NCI-H2087; first compound 0.05 µM): 0.496
relative viability (NCI-H2087; first compound 0.1581 µM): 0.407
relative viability (NCI-H2087; first compound 0.5 µM): 0.415
relative viability (NCI-H2228; first compound 0.005 µM): 0.306
relative viability (NCI-H2228; first compound 0.01581 µM): 0.283
relative viability (NCI-H2228; first compound 0.05 µM): 0.325
relative viability (NCI-H2228; first compound 0.1581 µM): 0.288
relative viability (NCI-H2228; first compound 0.5 µM): 0.406
relative viability (NCI-H2405; first compound 0.005 µM): 0.418
relative viability (NCI-H2405; first compound 0.01581 µM): 0.401
relative viability (NCI-H2405; first compound 0.05 µM): 0.436
relative viability (NCI-H2405; first compound 0.1581 µM): 0.373
relative viability (NCI-H2405; first compound 0.5 µM): 0.375
relative viability (NCI-H3122; first compound 0.005 µM): 0.376
relative viability (NCI-H3122; first compound 0.01581 µM): 0.419
relative viability (NCI-H3122; first compound 0.05 µM): 0.383
relative viability (NCI-H3122; first compound 0.1581 µM): 0.361
relative viability (NCI-H3122; first compound 0.5 µM): 0.344
relative viability (NCI-H322M; first compound 0.005 µM): 0.721
relative viability (NCI-H322M; first compound 0.01581 µM): 0.82
relative viability (NCI-H322M; first compound 0.05 µM): 0.776
relative viability (NCI-H322M; first compound 0.1581 µM): 0.689
relative viability (NCI-H322M; first compound 0.5 µM): 0.655
relative viability (NCI-H647; first compound 0.005 µM): 0.538
relative viability (NCI-H647; first compound 0.01581 µM): 0.457
relative viability (NCI-H647; first compound 0.05 µM): 0.473
relative viability (NCI-H647; first compound 0.1581 µM): 0.469
relative viability (NCI-H647; first compound 0.5 µM): 0.497
relative viability (NCI-H727; first compound 0.005 µM): 0.664
relative viability (NCI-H727; first compound 0.01581 µM): 0.489
relative viability (NCI-H727; first compound 0.05 µM): 0.439
relative viability (NCI-H727; first compound 0.1581 µM): 0.403
relative viability (NCI-H727; first compound 0.5 µM): 0.558
relative viability (RERF-LC-KJ; first compound 0.005 µM): 0.402
relative viability (RERF-LC-KJ; first compound 0.01581 µM): 0.375
relative viability (RERF-LC-KJ; first compound 0.05 µM): 0.468
relative viability (RERF-LC-KJ; first compound 0.1581 µM): 0.411
relative viability (RERF-LC-KJ; first compound 0.5 µM): 0.382
relative viability (SK-LU-1; first compound 0.005 µM): 0.58
relative viability (SK-LU-1; first compound 0.01581 µM): 0.549
relative viability (SK-LU-1; first compound 0.05 µM): 0.629
relative viability (SK-LU-1; first compound 0.1581 µM): 0.376
relative viability (SK-LU-1; first compound 0.5 µM): 0.532

Source: the supplement of paper PMC10307832
